Experimental data from patent EP1480941B1, “UREA DERIVATIVES AS HIV ASPARTYL PROTEASE INHIBITORS” (priority 2002, dated 2003).
pKi: −log10 of the molar value.

Target: HIV protease (Human immunodeficiency virus type 1 group M subtype B, UniProt P04585)
Assay: Enzymatic (fluorometric FRET) assay for determining the inhibition constant (Ki)
Format: biochemical
Details: EDANS/DABCYL substrate, equation of Henderson
From the text: Enzymatic assay for determining the inhibition constant (Ki) of synthetic compounds targeting the HIV protease
This is a fluorometric assay based on the cleavage by protease of a substrate carrying a donor group (EDANS) and an acceptor group (DABCYL) on each side of the cleavage site, interacting together through fluorescence resonance energy transfer (FRET) as described by Matayoshi et al. (Science 247:[…], 1990).
After calculation of Vo and Vi, the inhibition constant (Ki) of the compound is determined using the equation of Henderson: (Vo)/(Vi) = 1 + ([I])/(Kiapp) Where Ki = (Kiapp)/((1 + [S])/(Km)) [formula] where Vo = the enzyme's initial velocity Vi = the enzyme velocity in the presence of the inhibitory compound, [I] = inhibitor concentration, [S] = substrate concentration, Km = Michaelis-Menten constant and Kiapp = apparent Ki
Graphs are traced and the Ki determined using GraphPad Prism software v. 3.0.

With `Cc1ccc(S(=O)(=O)N(CC(C)C)[C@H](CCCCNC(=O)N[C@@H]2CCc3ccccc32)C(=O)O)cc1` [Example 27, (1R,1'R) Nα-isobutyl-Nα-(4-methylbenzenesulfonyl)-N∈-(indanyl-1'-aminocarbonyl)-R-lysine] the pKi was < 6.52.

Same assay, conditions: EDANS/DABCYL substrate, equation of Henderson; read-out: Ki

Point of comparison: `CC(C)CN([C@H](CO)CCCCNC(=O)N(Cc1ccccc1)Cc1ccsc1)S(=O)(=O)c1ccc(N)cc1` [Example 76, (2S) 2-N-(4-aminobenzenesulfonyl)-2-N-isobutyl-6-N-[N'-benzyl-N'-(3-thiophenemethyl)aminocarbonyl]-2,6-diaminohexanol], pKi 7.96. Against it:
- Cc1ccc(S(=O)(=O)N(CC(C)C)C(CCCCNC(=N)NCc2ccccc2)C(=O)O)cc1 (racemic) [Example 30, Nα-isobutyl-Nα-(4-methylbenzenesulfonyl)-Nω-benzyl-DL-homoarginine] — lower, < 6.52
- Cc1ccc(S(=O)(=O)N(CC(C)C)[C@@H](CCCCNC(=O)NCc2ccccn2)C(=O)O)cc1 [Example 3, Nα-isobutyl-Nα-(4-methylbenzenesulfonyl)-N∈-[N'-(2-picolyl)aminocarbonyl]-L-lysine] — lower, < 6.52
- Cc1ccc(S(=O)(=O)N(CC(C)C)[C@@H](CCCCNC(=O)NCCc2ccc(O)cc2)C(=O)O)cc1 [Example 5, Nα-isobutyl-Nα-(4-methylbenzenesulfonyl)-N∈-[2'-(4-hydroxyphenethyl)aminocarbonyl]-L-lysine] — lower, < 6.52
- Cc1ccc(S(=O)(=O)N(CC(C)C)[C@@H](CCCCNC(=O)N(CC(C)C)C2CCCCC2)C(=O)O)cc1 [Example 7, Nα-isobutyl-Nα-(4-methylbenzenesulfonyl)-N∈-[(N'-cyclohexyl-N'-isobutyl)aminocarbonyl]-L-lysine] — lower, < 6.52
- Cc1ccc(S(=O)(=O)N(CC(C)C)C(CCCCNC(=S)NC2CCc3ccccc32)C(=O)O)cc1 [Example 14, (1S,TRS) Nα-isobutyl-Nα-(4-methylbenzenesulfonyl)-N∈-(indanyl-1'-aminothiocarbonyl)-S-lysine] — lower, < 6.52
- Cc1ccc(S(=O)(=O)N(CC(C)C)[C@@H](CCCCNC(=O)NCCN2CCCCC2)C(=O)O)cc1 [Example 17, Nα-isobutyl-Nα-(4-methylbenzenesulfonyl)-N∈-[2'-(1-pyperidinyl)ethylaminocarbonyl]-L-lysine] — lower, < 6.52
- Cc1ccc(S(=O)(=O)N(CC(C)C)[C@@H](CCCCNC(=O)Nc2nccc3ccccc23)C(=O)O)cc1 [Example 20, Nα-isobutyl-Nα-(4-methylbenzenesulfonyl)-N∈-(1'-isoquinolylaminocarbonyl)-L-lysine] — lower, < 6.52
- Cc1ccc(S(=O)(=O)N(CC(C)C)[C@@H](CCCCNC(=O)N[C@@H]2c3ccccc3C[C@@H]2O)C(=O)O)cc1 [Example 22, (1S,1'R,2'S) Nα-isobutyl-Nα-(4-methylbenzenesulfonyl)-N∈-(cis-2'-hydroxyindanyl-1'-aminocarbonyl)-S-lysine] — lower, < 6.52
- Cc1ccc(S(=O)(=O)N(CC(C)C)[C@@H](CCCCNC(=O)N[C@H]2c3ccccc3C[C@H]2O)C(=O)O)cc1 [Example 23, (1S,1'S,2'R) Nα-isobutyl-Nα-(4-methylbenzenesulfonyl)-N∈-(cis-2'-hydroxyindanyl-1'-aminocarbonyl)-S-lysine] — lower, < 6.52
- Cc1ccc(S(=O)(=O)N(CC(C)C)[C@@H](CCCCNC(=O)N[C@H]2CCc3ccccc32)C(=O)O)cc1 [Example 25, (15,1'S) Nα-isobutyl-Nα-(4-methylbenzenesulfonyl)-N∈-(indanyl-1'-aminocarbonyl)-S-lysine] — lower, < 6.52
- Cc1ccc(S(=O)(=O)N(CC(C)C)[C@H](CCCCNC(=O)N[C@H]2CCc3ccccc32)C(=O)O)cc1 [Example 26, (1R,1'S) Nα-isobutyl-Nα-(4-methylbenzenesulfonyl)-N∈-(indanyl-1'-aminocarbonyl)-R-lysine] — lower, < 6.52
- Cc1ccc(S(=O)(=O)N(CC(C)C)[C@@H](CCCCNC(=O)N(CCc2ccccc2)Cc2ccccc2)C(=O)O)cc1 [Example 31, Nα-isobutyl-Nα-(4-methylbenzenesulfonyl)-N∈-[(N'-benzyl-N'-phenethyl)aminocarbonyl]-L-lysine] — lower, < 6.52
- Cc1ccc(S(=O)(=O)N(CC(C)C)[C@@H](CCCCNC(=O)N(CC(C)C)CC(C)C)C(=O)O)cc1 [Example 35, Nα-isobutyl-Nα-(4-methylbenzenesulfonyl)-N∈-(N',N'-diisobutylaminocarbonyl)-L-lysine] — lower, < 6.52
- Cc1ccc(S(=O)(=O)N(CC(C)C)[C@H](CO)CCCCNC(=O)N(Cc2ccncc2)Cc2ccncc2)cc1 [Example 46, (2S) 2-N-isobutyl-2-N-(4-methylbenzenesulfonyl)-6-N-[N',N'-di-(4-picolyl)aminocarbonyl]-2,6-diaminohexanol] — lower, < 6.52
- CC(C)CN([C@H](CO)CCCCNC(=O)N(Cc1ccncc1)Cc1ccncc1)S(=O)(=O)c1ccc(N)cc1 [Example 51, (2S) 2-N-(4-aminobenzenesulfonyl)-2-N-isobutyl-6-N [N',N'-di-(4-picolyl)aminocarbonyl]-2,6-diaminohexanol] — lower, < 6.52
- Cc1ccc(S(=O)(=O)N(CC(C)C)[C@@H](CCCCNC(=O)N(Cc2ccccc2)Cc2cccc(N)c2)C(=O)O)cc1 [Example 58, Nα-isobutyl-Nα-(4-methylbenzenesulfonyl)-N∈-[N'-(3-aminobenzyl)-N'-benzylaminocarbonyl]-L-lysine] — lower, < 6.52
- CC(C)CN([C@H](CO)CCCCNC(=O)N(Cc1cccnc1)Cc1cccc(F)c1)S(=O)(=O)c1ccc(N)cc1 [Example 72, (2S) 2-N-(4-aminobenzenesulfonyl)-2-N-isobutyl-6-N-[N'-(3-fluorobenzyl)-N'-(3-picolyl)aminocarbonyl]-2,6-diaminohexanol] — lower, < 6.52
- CC(C)CN([C@H](CO)CCCCNC(=O)N(Cc1cccnc1)Cc1ccccc1F)S(=O)(=O)c1ccc(N)cc1 [Example 73, (2S) 2-N-(4-aminobenzenesulfonyl)-2-N-isobutyl-6-N-[N'-(2-fluorobenzyl)-N'-(3-picolyl)aminocarbonyl]-2,6-diaminohexanol] — lower, < 6.52
- COc1ccc(CNC(=O)NCCCC[C@@H](CO)N(CC(C)C)S(=O)(=O)c2ccc(N)cc2)cc1 [Example 77, (2S) 2-N-(4-aminobenzenesulfonyl)-2-N-isobutyl-6-N-(N'-4-methoxybenzylaminocarbonyl)-2,6-diaminohexanol] — lower, < 6.52
- COc1cccc(OC)c1CNC(=O)NCCCC[C@@H](CO)N(CC(C)C)S(=O)(=O)c1ccc(N)cc1 [Example 78, (2S) 2-N-(4-aminobenzenesulfonyl)-2-N-isobutyl-6-N-(N'-2,6-dimethoxybenzylaminocarbonyl)-2,6-diaminohexanol] — lower, < 6.52
- COc1ccc(CNC(=O)NCCCC[C@@H](CO)N(CC(C)C)S(=O)(=O)c2ccc(N)cc2)c(OC)c1 [Example 79, (2S) 2-N-(4-aminobenzenesulfonyl)-2-N-isobutyl-6-N-(N'-2,4-dimethoxybenzylaminocarbonyl)-2,6-diaminohexanol] — lower, < 6.52
- COc1cc(CNC(=O)NCCCC[C@@H](CO)N(CC(C)C)S(=O)(=O)c2ccc(N)cc2)cc(OC)c1 [Example 80, (2S) 2-N-(4-aminobenzenesulfonyl)-2-N-isobutyl-6-N-(N'-3,5-dimethoxybenzylaminocarbonyl)-2,6-diaminohexanol] — lower, < 6.52

Same assay, conditions: Ki, EDANS/DABCYL substrate, equation of Henderson

Point of comparison: `Cc1ccc(S(=O)(=O)N(CC(C)C)[C@@H](CCCCNC(=O)NCCc2ccccc2)C(=O)O)cc1` [Example 1, Nα-isobutyl-Nα-(4-methylbenzenesulfonyl)-Nε-(2'-phenethylaminocarbonyl)-L-lysine], pKi 6.69. Against it:
- Cc1ccc(S(=O)(=O)N(CC(C)C)[C@@H](CCCCNC(=O)N[C@@H](Cc2ccccc2)C(N)=O)C(=O)O)cc1 [Example 8, Nα-isobutyl-Nα-(4-methylbenzenesulfonyl)-N∈-[L-phenylalanylamide-N'a-carbonyl]-L-lysine] — 0.53 log units higher, 7.22
- Cc1ccc(S(=O)(=O)N(CC(C)C)[C@@H](CCCCNC(=O)N[C@H](Cc2ccccc2)C(N)=O)C(=O)O)cc1 [Example 9, Nα-isobutyl-Nα-(4-methylbenzenesulfonyl)-N∈-[D-phenylalanylamide-N'α-carbonyl]-L-lysine] — within 0.2 log units, 6.88
- Cc1ccc(S(=O)(=O)N(CC(C)C)[C@@H](CCCCNC(=O)NNC(=O)c2ccccc2O)C(=O)O)cc1 [Example 10, Nα-isobutyl-Nα-(4-methylbenzenesulfonyl)-N∈-[N2-(2-hydroxybenzoyl)-hydrazino-N1-carbonyl]-L-lysine] — 0.57 log units higher, 7.26
- Cc1ccc(S(=O)(=O)N(CC(C)C)[C@@H](CCCCNC(=O)NNC(=O)c2ccncc2)C(=O)O)cc1 [Example 11, Nα-isobutyl-Nα-(4-methylbenzenesulfonyl)-N∈-[N2-(pyridine-4-carbonyl)-hydrazino-N1-carbonyl]-L-lysine] — lower, < 6.52
- Cc1ccc(S(=O)(=O)N(CC(C)C)[C@@H](CCCCNC(=O)N[C@@H](Cc2ccccc2)C(=O)NCC(C)C)C(=O)O)cc1 [Example 12, Nα-isobutyl-Nα-(4-methylbenzenesulfonyl)-N∈-(L-phenylalanyl-N'-isobutylamide-N'α-carbonyl)-L-lysine] — 0.64 log units higher, 7.33
- Cc1ccc(S(=O)(=O)N(CC(C)C)[C@@H](CCCCNC(=O)N[C@@H](Cc2ccccc2)C(=O)Nc2ccccc2)C(=O)O)cc1 [Example 13, Nα-isobutyl-Nα-(4-methylbenzenesulfonyl)-N∈-(L-phenylalanyl-N'-phenylamide-N'α-carbonyl)-L-lysine] — 0.53 log units higher, 7.22
- COC(=O)[C@H](CCCCNC(=O)NCCc1ccccn1)N(CC(C)C)S(=O)(=O)c1ccc(C)cc1 [Example 19, Nα-isobutyl-Nα-(4-methylbenzenesulfonyl)-N∈-[(2'-pyridyl)ethylaminocarbonyl]-L-lysine methyl ester] — lower, < 6.52
